Laboratory results: EP3002287B1, “Thiochromeno[2,3-c]quinolin-12-one derivatives and their use as topoisomerase inhibitors” (National Defense Medical Center, priority 2014, dated 2016)

How the values were obtained:
Assay in all cases: NCI in vitro 60-cell drug screen (SRB assay)
Assay type in all cases: cell-based
[1] = system: CCRF-CEM; conditions: CCRF-CEM (Leukemia); 10^-5 molar concentration; 48 hours
[2] = system: HL-60(TB); conditions: HL-60(TB) (Leukemia); 10^-5 molar concentration; 48 hours
[3] = system: K-562; conditions: K-562 (Leukemia); 10^-5 molar concentration; 48 hours
[4] = system: MOLT-4; conditions: MOLT-4 (Leukemia); 10^-5 molar concentration; 48 hours
[5] = system: A549/ATCC; conditions: A549/ATCC (Non-small cell lung cancer); 10^-5 molar concentration; 48 hours
[6] = system: NCI-H226; conditions: NCI-H226 (Non-small cell lung cancer); 10^-5 molar concentration; 48 hours
[7] = system: NCI-H23; conditions: NCI-H23 (Non-small cell lung cancer); 10^-5 molar concentration; 48 hours
[8] = system: NCI-H460; conditions: NCI-H460 (Non-small cell lung cancer); 10^-5 molar concentration; 48 hours
[9] = system: NCI-H522; conditions: NCI-H522 (Non-small cell lung cancer); 10^-5 molar concentration; 48 hours
[10] = system: COLO 205; conditions: COLO 205 (Colon cancer); 10^-5 molar concentration; 48 hours
[11] = system: HCT-116; conditions: HCT-116 (Colon cancer); 10^-5 molar concentration; 48 hours
[12] = system: HCT-15; conditions: HCT-15 (Colon cancer); 10^-5 molar concentration; 48 hours
[13] = system: SW-620; conditions: SW-620 (Colon cancer); 10^-5 molar concentration; 48 hours
[14] = system: SF-268; conditions: SF-268 (CNS cancer); 10^-5 molar concentration; 48 hours
[15] = system: SF-539; conditions: SF-539 (CNS cancer); 10^-5 molar concentration; 48 hours
[16] = system: U251; conditions: U251 (CNS cancer); 10^-5 molar concentration; 48 hours
[17] = system: MDA-MB-435; conditions: MDA-MB-435 (Melanoma); 10^-5 molar concentration; 48 hours
[18] = system: SK-MEL-2; conditions: SK-MEL-2 (Melanoma); 10^-5 molar concentration; 48 hours
[19] = system: SK-MEL-5; conditions: SK-MEL-5 (Melanoma); 10^-5 molar concentration; 48 hours
[20] = system: UACC-62; conditions: UACC-62 (Melanoma); 10^-5 molar concentration; 48 hours
[21] = system: IGROV1; conditions: IGROV1 (Ovarian cancer); 10^-5 molar concentration; 48 hours
[22] = system: OVCAR-3; conditions: OVCAR-3 (Ovarian cancer); 10^-5 molar concentration; 48 hours
[23] = system: OVCAR-4; conditions: OVCAR-4 (Ovarian cancer); 10^-5 molar concentration; 48 hours
[24] = system: OVCAR-5; conditions: OVCAR-5 (Ovarian cancer); 10^-5 molar concentration; 48 hours
[25] = system: NCI/ADR-RES; conditions: NCI/ADR-RES (Ovarian cancer); 10^-5 molar concentration; 48 hours
[26] = system: SK-OV-3; conditions: SK-OV-3 (Ovarian cancer); 10^-5 molar concentration; 48 hours
[27] = system: 786-0; conditions: 786-0 (Renal cancer); 10^-5 molar concentration; 48 hours
[28] = system: A498; conditions: A498 (Renal cancer); 10^-5 molar concentration; 48 hours
[29] = system: ACHN; conditions: ACHN (Renal cancer); 10^-5 molar concentration; 48 hours
[30] = system: RXF 393; conditions: RXF 393 (Renal cancer); 10^-5 molar concentration; 48 hours
[31] = system: DU-145; conditions: DU-145 (Prostate cancer); 10^-5 molar concentration; 48 hours
[32] = system: MCF7; conditions: MCF7 (Breast cancer); 10^-5 molar concentration; 48 hours
[33] = system: BT-549; conditions: BT-549 (Breast cancer); 10^-5 molar concentration; 48 hours
[34] = system: T-47D; conditions: T-47D (Breast cancer); 10^-5 molar concentration; 48 hours

Structure (SMILES) | Growth percent [1] | Growth percent [2] | Growth percent [3] | Growth percent [4] | Growth percent [5] | Growth percent [6] | Growth percent [7] | Growth percent [8] | Growth percent [9] | Growth percent [10] | Growth percent [11] | Growth percent [12] | Growth percent [13] | Growth percent [14] | Growth percent [15] | Growth percent [16] | Growth percent [17] | Growth percent [18] | Growth percent [19] | Growth percent [20] | also measured
O=c1c2cc(Cl)ccc2sc2c(N3CCN(CCO)CC3)nc3ccccc3c12 [Compound 10, 10-Chloro-6-(4-(2-hydroxyethyl)piperazin-1-yl)-12H-thiochrom eno[2,3-c]quinolin-12one] | 83.46% | 93.81% | 35.47% | 70.01% | 95.49% | 89.29% | 84.75% | 93.71% | 94.76% | 88.90% | 69.33% | 82.92% | 88.11% | 87.80% | 86.18% | 83.31% | 98.24% | 104.06% | 94.13% | 91.36% | Growth percent [21]: 71.67%; Growth percent [22]: 93.92%; Growth percent [23]: 85.35%; Growth percent [24]: 95.70%; Growth percent [25]: 92.05%; Growth percent [26]: 95.12%; Growth percent [27]: 85.58%; Growth percent [28]: 62.20%; Growth percent [29]: 83.05%; Growth percent [30]: 70.31%; Growth percent [31]: 96.26%; Growth percent [32]: 51.73%; Growth percent [33]: 90.05%; Growth percent [34]: 87.22%
O=c1c2cc(Cl)ccc2sc2c(N3CCN(Cc4ccccc4)CC3)nc3ccccc3c12 [Compound 11, 6-(4-Benzylpiperazin-1-yl)-10-chloro-12H-thiochromeno[2,3-c]q uinolin-12-one] | 95.42% | 100.96% | 87.84% | 90.91% | 106.37% | 88.98% | 89.94% | 95.57% | 96.69% | 105.64% | 98.59% | 94.51% | 93.08% | 100.42% | 108.56% | 96.69% | 96.99% | 107.37% | 98.38% | 96.00% | Growth percent [21]: 93.49%; Growth percent [22]: 101.69%; Growth percent [23]: 102.43%; Growth percent [24]: 111.92%; Growth percent [25]: 98.31%; Growth percent [26]: 94.79%; Growth percent [27]: 105.57%; Growth percent [28]: 94.17%; Growth percent [29]: 96.39%; Growth percent [30]: 100.71%; Growth percent [31]: 111.61%; Growth percent [32]: 68.32%; Growth percent [33]: 114.05%; Growth percent [34]: 89.22%
O=c1c2cc(Cl)ccc2sc2c(N3CCN(c4ccccc4)CC3)nc3ccccc3c12 [Compound 12, 10-Chloro-6-(4-phenylpiperazin-1-yl)-12H-thiochromeno[2,3-c] quinolin-12-one] | 98.41% | 113.79% | 112.37% | 107.23% | 98.54% | 87.10% | 93.80% | 103.24% | 93.50% | 111.67% | 105.36% | 99.81% | 100.20% | 103.82% | 100.06% | 96.09% | 102.39% | 104.26% | 103.57% | 104.48% | Growth percent [21]: 91.38%; Growth percent [22]: 109.63%; Growth percent [23]: 94.29%; Growth percent [24]: 108.10%; Growth percent [25]: 100.81%; Growth percent [26]: 100.39%; Growth percent [27]: 101.58%; Growth percent [28]: 81.04%; Growth percent [29]: 94.99%; Growth percent [30]: 107.68%; Growth percent [31]: 111.15%; Growth percent [32]: 74.16%; Growth percent [33]: 123.95%; Growth percent [34]: 104.57%
